According to EP1103270B1, “TREATMENT OF AUTOIMMUNE DISEASES IN MAMMALS” (UNIVERSIDAD COMPLUTENSE DE MADRID, priority 1999, dated 2000):

Key:
IL-6 [1] = assay: Circulating levels of IL-6 in mice after injection of LPS; assay type: in vivo; settings: two hours after injection of 25 µgr. of LPS, simultaneous administration of 5nmol
Source text: In an experiment carried out in mice the circulating levels of IL-6 two hours after injection of 25 µgr. of LPS were approximately 1.5 ngr./ml. The simultaneous administration of 5nmol of VIP or ACHPA reduced said levels by 60% and 75%, respectively.

mRNA of IL-6 = assay: Northern Blot for mRNA of IL-6 in macrophages activated with LPS; assay type: cell-based, rat; settings: macrophages activated with LPS and exposed to the peptide; Figure 5
Protocol: (§1) • Figure 1 represents the production of TNFα by murine macrophages in culture (5x10^5 cells/ml) stimulated with 10ngr/ml of LPS in the presence or absence of 10^-8M of VIP or ACHPA during the course of 24 hours. • Figure 2 represents the production of TNFα by murine macrophages in culture (5x10^5 cells/ml) after 6 hours of culture with 10ngr/ml of LPS and to which 10^-8M of VIP or ACHPA are added at different times. • Figure 3 represents the production of IL-6 by murine macrophages in culture (5x10^5 cells/ml) stimulated with 10ngr/ml of LPS in the presence or absence of 10^-8M of VIP or ACHPA during the course of 24 hours. • Figure 4 represents the production of IL-6 by murine macrophages in culture (5x10^5 cells/ml) after 6 hours of culture with 10ngr/ml of LPS and to which 10^-8M of VIP or ACHPA are added at different times. • Figure 5 presents the Northern Blot analysis for the presence of mRNA of TNFα and IL-6 in macrophages stimulated with LPS in the presence or absence of VIP or ACHPA (18S represents the corresponding rRNA as total quality control of loaded RNA). • Figure 6 represents the survival in mice injected with 400µgr of LPS and, simultaneously, or after 30 minutes, 1 or 4 hours, with 5 nmol of VIP or ACHPA.
(§2) Macrophages from rat were submitted to the experimental conditions described in examples 1 and 3 and their mRNA was isolated. […]

anti-KLH antibodies = assay: Isotype of serum anti-KLH antibodies (ELISA) in KLH-immunised mice; assay type: in vivo; settings: 5 nmol/mouse with second KLH injection, serum two weeks after the last immunisation
TNFα [2] = assay: Production of TNFα in peritoneal murine macrophages stimulated with LPS, in vitro; assay type: cell-based
Protocol: as §1
In experiments carried out "in vitro" VIP and ACHPA inhibit the production of TNFα in peritoneal murine macrophages stimulated with LPS. […]

mRNA of TNFα = assay: Northern Blot for mRNA of TNFα in macrophages activated with LPS; assay type: cell-based, rat; settings: macrophages activated with LPS and exposed to the peptide; Figure 5
Protocol: as §1, §2

IL-6 [3] = assay: Production of IL-6 in peritoneal murine macrophages stimulated with LPS, in vitro; assay type: cell-based
Protocol: In experiments carried out " in vitro" VIP and ACHPA inhibit the production of IL-6 in peritoneal murine macrophages stimulated with LPS. Most of the inhibition reaches values near to 90% and occurs with doses of stimulation of 10 µgr./ml of LPS. […] The inhibitory effect is also observed if the neuropeptides are added after stimulation with LPS, although the degree of inhibition is progressively smaller (see Figure 4).

[4] = Survival of mice injected with a lethal dose of LPS (endotoxic shock); assay type: in vivo; settings: mice injected with 400µgr of LPS
Protocol: as §1
An experiment was carried out in which the long-term survival over a period of 4 days was studied for mice injected with 400µgr of LPS. […]

IL-4 producing cells = assay: Number of IL-4 producing cells (ELISPOT) in spleen and peritoneum of KLH-immunised mice; assay type: in vivo; settings: 5 nmol/mouse with second KLH injection, spleen and peritoneum cells two weeks later
TNFα [5] = assay: Circulating levels of TNFα in mice after injection of LPS; assay type: in vivo; settings: 2 hours after injection of 25 µgr of LPS, simultaneous administration of 5 nmol
Protocol: In an experiment carried out with mice the circulating levels of TNFα 2 hours after injection of 25 µgr of LPS were approximately 4 ngr./ml. Simultaneous administration of 5 nmol of VIP or ACHPA reduced said levels by 60%.

adenylate cyclase hypophysary peptide activator [ACHPA]
reduction of circulating levels of IL-6 (IL-6 [1]): 75% | transcripts for IL-6 (Northern Blot) (mRNA of IL-6): absence of transcripts | isotype of anti-KLH antibodies detectable in serum (anti-KLH antibodies): only of the IgGl isotype | IC50 (TNFα [2]; peritoneal murine macrophages stimulated with LPS, read-out: IC50 (inhibition of the production of TNFα)): 0.08 nM | greatest degree of inhibition of the production of TNFα (TNFα [2]; peritoneal murine macrophages, stimulation with 1-10 ngr./ml of LPS): ~60% | transcripts for TNFα (Northern Blot) (mRNA of TNFα): absence of transcripts | IC50 (IL-6 [3]; peritoneal murine macrophages stimulated with LPS, read-out: IC50 (inhibition of the production of IL-6)): 0.0086 nM | inhibition of the production of IL-6 (most of the inhibition) (IL-6 [3]; peritoneal murine macrophages, stimulation with 10 µgr./ml of LPS): ~90% | survival rates ([4]; administration up to 1 hour after injection with LPS): ~50% | survival at the end of the experiment ([4]; simultaneous administration of 5 nmol, period of 4 days): 60% | increase in the number of IL-4 producing cells compared to untreated mice (IL-4 producing cells): ~20 times | reduction of circulating levels of TNFα (TNFα [5]): 60%
